According to US9403806B1, “Cognition enhancing compounds and compositions, methods of making, and methods of treating” (NeuroSolis, Inc., priority 2010, dated 2016):
Each block holds one compound with its values, some of them ahead of it.

What was measured:
CD-1 Mice = experiment: Novel object recognition assay; type: in vivo; conditions: oral dose 3.0 mg/kg, 1 hr inter-trial interval
From the text: Object recognition memory—judgment of the prior occurrence of objects—is a key part of human memory, and is commonly impaired in neurodegenerative diseases, such as Alzheimer's disease (Winters B D et al Neurosci Behav Rev 32 (2008) 1055-70). This may be modeled in laboratory rodents using delayed spontaneous novel object recognition, which tests the ability of an animal to recognize an object it has previously been exposed to, after a delay. Drugs may be evaluated for their ability to improve the animal's ability to remember, recall or recognize objects in this model.
CD-1 Mice (males, 7-8 weeks old) were fasted for 16 hrs and orally dosed with compounds of interest 30 min before experiments began. Throughout those 30 min, animals were left in their home cages except during a 1 min handling habituation session at 10 min post-dosing. All handling and experiments were carried out under low, indirect light during the hours between 8 am and 3 pm. Compound 122a and donepezil were dissolved in PBS. […] Mouse activity was recorded using a digital video camera and evaluated after the trial. The time each mouse spent with its nose in contact with either object (investigation) was recorded for each minute of T2, and a Discrimination Score (D Score) was calculated using the following formula once the animal completed a total of 1 min of investigation. […]

[1] = test system: pooled male human liver microsomes; experiment: Metabolism in human liver microsomes, Example 45; type: in vitro ADME
Summary of the method: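 Pooled male human liver microsomes sampled every 2 hours, reactions stopped with 1% formic acid. After centrifugation and ultrafiltration, remaining parent compound quantified by reverse-phase C8 LC/MS/MS with electrospray and MRM transitions against a standard calibration curve.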

human FMO1 Supersomes = molecular target: T1, human FMO1 Supersomes (Homo sapiens, UniProt Q01740); experiment: Metabolism by flavin monoxygenase 1 (FMO1) Supersomes; type: in vitro ADME; conditions: after 6 hours (FIG. 2)
T1 construct: purchased BD Biosciences 456241
T1 sequence (Q01740 1-532): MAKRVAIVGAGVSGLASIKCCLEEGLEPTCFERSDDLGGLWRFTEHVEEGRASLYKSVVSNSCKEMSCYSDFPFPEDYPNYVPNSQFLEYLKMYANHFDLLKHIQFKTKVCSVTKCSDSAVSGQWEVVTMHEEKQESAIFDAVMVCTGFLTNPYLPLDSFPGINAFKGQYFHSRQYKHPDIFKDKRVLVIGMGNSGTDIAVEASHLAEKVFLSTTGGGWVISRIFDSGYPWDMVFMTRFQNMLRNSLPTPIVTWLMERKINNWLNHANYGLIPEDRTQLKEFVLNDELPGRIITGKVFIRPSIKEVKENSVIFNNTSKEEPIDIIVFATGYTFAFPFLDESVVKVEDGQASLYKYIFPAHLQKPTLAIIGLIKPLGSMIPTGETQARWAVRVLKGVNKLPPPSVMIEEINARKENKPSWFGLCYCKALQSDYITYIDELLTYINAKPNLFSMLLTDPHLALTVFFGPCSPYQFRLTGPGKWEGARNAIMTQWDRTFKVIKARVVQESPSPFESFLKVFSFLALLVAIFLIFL
Procedure: […] Aliquots were removed every 10 minutes, and 1% formic acid was added to halt the reaction. Samples were centrifuged, filtered through 0.2 micron spinfilter and the amount of each compound in the supernatants was quantitated using LC/MS/MS.

[2] = test system: pooled male Sprague-Dawley rat liver microsomes; experiment: Metabolism by rat liver microsomes; type: in vitro ADME; conditions: 6 hours incubation (FIG. 3)
Procedure: (§1) Compounds were incubated with pooled male Sprague-Dawley rat liver microsomes (BD Biosciences, #452501) and an NADP-regenerating system in a phosphate buffer (pH 7.4) for a total of 6 hours. Aliquots were removed every 2 hours, and 1% formic acid was added to halt the reaction. Samples were centrifuged, filtered through 0.2 micron spinfilter and the amount of each compound in the supernatants was quantitated using LC/MS/MS.

PAMPA test, Example 34 = conditions: PAMPA
[3] = test system: pooled male human liver microsomes; experiment: Metabolism by human liver microsomes, Example 33; type: in vitro ADME; conditions: 6 hours incubation (FIGS. 4A, 4B)
Procedure: as §1, with “human” for “Sprague-Dawley rat”, “#452172)” for “#452501)”

[4] = molecular target: T2, human muscarinic M1 receptors (Homo sapiens, UniProt P11229); experiment: IP production in A9L cells with human M1 receptors (IPOne TR-FRET), Example 28; type: cell-based
T2 construct: host or cells: A9L cells
T2 sequence (P11229 1-460): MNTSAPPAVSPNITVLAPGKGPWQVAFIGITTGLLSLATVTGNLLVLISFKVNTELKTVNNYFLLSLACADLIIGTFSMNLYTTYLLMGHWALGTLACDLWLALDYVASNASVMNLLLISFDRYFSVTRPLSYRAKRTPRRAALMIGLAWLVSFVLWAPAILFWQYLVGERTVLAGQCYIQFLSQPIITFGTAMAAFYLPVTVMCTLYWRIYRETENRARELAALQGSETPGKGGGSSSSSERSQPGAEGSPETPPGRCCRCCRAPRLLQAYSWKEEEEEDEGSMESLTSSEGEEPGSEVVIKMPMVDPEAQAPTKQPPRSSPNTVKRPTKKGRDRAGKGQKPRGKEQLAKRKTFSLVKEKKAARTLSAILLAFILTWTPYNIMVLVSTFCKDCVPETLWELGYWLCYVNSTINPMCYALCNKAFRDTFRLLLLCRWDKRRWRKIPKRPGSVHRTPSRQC
Summary of the method: (§2)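 A9L cells transfected with human M1 or M3 receptors, exposed to compound in medium with 10 mM LiCl and 10 mM HEPES (pH 7.4) for 60 min at 37 °C. IP in lysates measured by IPOne TR-FRET; efficacy expressed relative to full agonist (100%).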

[5] = molecular target: T3, human muscarinic M3 receptors (Homo sapiens, UniProt P20309); experiment: IP production in A9L cells with human M3 receptors (IPOne TR-FRET), Example 28; type: cell-based
T3 construct: host or cells: A9L cells
Summary of the method: as §2

in vitro = conditions: PAMPA
[6] = rat, in vivo, po
[7] = percentage of maximal stimulation by carbachol
[8] = potency relative to carbachol at its EC50, semi-quantitative

T3 sequence (P20309 whole entry): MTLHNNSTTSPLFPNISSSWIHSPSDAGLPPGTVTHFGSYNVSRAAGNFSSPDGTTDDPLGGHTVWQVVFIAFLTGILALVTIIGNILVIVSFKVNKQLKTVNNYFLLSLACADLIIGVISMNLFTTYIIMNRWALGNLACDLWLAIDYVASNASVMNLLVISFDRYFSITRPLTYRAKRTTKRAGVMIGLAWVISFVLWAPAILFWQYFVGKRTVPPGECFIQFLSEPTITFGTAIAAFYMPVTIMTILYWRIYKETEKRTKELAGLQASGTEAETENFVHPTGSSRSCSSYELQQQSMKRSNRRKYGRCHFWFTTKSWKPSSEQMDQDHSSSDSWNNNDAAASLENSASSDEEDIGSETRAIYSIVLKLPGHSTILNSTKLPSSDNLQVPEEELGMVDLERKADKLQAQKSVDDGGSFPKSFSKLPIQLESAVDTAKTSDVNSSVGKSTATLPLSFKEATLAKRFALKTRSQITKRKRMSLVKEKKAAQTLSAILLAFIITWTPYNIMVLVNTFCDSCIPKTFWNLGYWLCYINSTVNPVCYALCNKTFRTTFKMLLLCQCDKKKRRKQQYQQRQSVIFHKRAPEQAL

- Loss at 6 hrs (%) [1]: 100%
SMILES: CCCCCCOc1nsnc1C1=CCCN(C)C1 [Xanomeline, reference compound]
- Mean D Score (CD-1 Mice): 72.05%

SMILES: COc1cc2c(cc1OC)C(=O)C(CC1CCN(Cc3ccccc3)CC1)C2 (stereo not drawn) [Donepezil]
- Mean D Score (CD-1 Mice): 70.35%

- extent of metabolism in FMO Supersomes (in words) (human FMO1 Supersomes): almost completely metabolized
- metabolism in rat liver microsomes (in words) [2]: nearly completely metabolized
- Papp (PAMPA test, Example 34): 12.8 ×10⁻⁶ cm/s
- metabolism in human liver microsomes (in words) [3]: nearly completely metabolized
- potency and efficacy at M1 muscarinic receptors (in words) ([4]; huM1/A9L): reasonable potency and efficacy
- huM1/A9L Smax [4, 7]: 72%
- huM1/A9L ED50 relative to CCh* [4, 8]: + (+ potency 2-10x CCh)
- huM3/A9L Smax [5, 7]: 39%
- huM3/A9L ED50 relative to CCh* [5, 8]: + (+ potency 2-10x CCh)
SMILES: Cc1noc(C2=CCCN(C)C2)n1 [Compound 36, 3-methyl-5-(1-methyl-1,2,5,6-tetrahydropyridin-3-yl)-1,2,4-oxadiazole]
- selectivity between M1 and M3 receptors ([4]; huM1 versus huM3 A9L cells): shows some selectivity for M1 versus M3 receptors

- Papp (in vitro): 0.26 ×10⁻⁶ cm/s
- Brain/plasma ratio [6]: Very low
SMILES: CNC(=C[N+](=O)[O-])NCCSCc1ccc(CN(C)C)o1 [Ranitidine]
